Experimental data taken from ChEMBL document CHEMBL1126682, “Quinolone antimicrobial agents substituted with morpholines at the 7-position. Syntheses and structure-activity relationships” (J Med Chem, 1993).
Values after ≈ are worked out from the molar mass of the structure shown.

Columns and labels:
Staphylococcus aureus [1] = assay: Minimum inhibition concentration against Staphylococcus aureus FDA209P strain; assay type: functional
Escherichia coli [2] = assay: Minimum inhibition concentration against Escherichia coli NIHJ JC-2 strain; assay type: functional
Enterococcus faecalis = assay: Minimum inhibition concentration against Enterococcus faecalis LS-101 strain; assay type: functional
Streptococcus pneumoniae = assay: Minimum inhibition concentration against Streptococcus pneumoniae Type I strain; assay type: functional
Pseudomonas aeruginosa = assay: Minimum inhibition concentration against Pseudomonas aeruginosa U-31 strain; assay type: functional
[3] = biological target: T1, GABA-A receptor; anion channel (Homo sapiens) (UniProt P14867+P47870+P18507+P28472+P48169+Q99928+Q9UN88+P34903+O00591+O14764+Q8N1C3+P18505+P78334+P47869+P31644+Q16445); assay: Percentage of GABA-induced chloride currents with 10e-4 M 4-biphenylacetic acid; assay type: functional; conditions: Bull Frog
[4] = biological target: GABA-A receptor; anion channel; assay: Inhibition of [3H]muscimol binding to GABA A receptor with 10 e-4 M 4-biphenylacetic acid; assay type: protein-complex assay
Mus musculus [5] = assay: Percentage of mice with convulsion with compound alone at 400 mg/kg; assay type: functional
[6] = biological target: T1, GABA-A receptor; anion channel (Homo sapiens); assay: Percentage of GABA-induced chloride currents with compound alone at 10 e-4 M; assay type: functional; conditions: Bull Frog
[7] = biological target: GABA-A receptor; anion channel; assay: Inhibition of [3H]muscimol binding to GABA A receptor with compound alone at 10 e-4 M; assay type: protein-complex assay
Staphylococcus aureus [8] = assay: Minimum inhibition concentration against Staphylococcus aureus MRSA strain; assay type: functional
Mus musculus [9] = assay: Percentage of mice with convulsion (400 mg/kg fenbufen); assay type: functional
[10] = biological target: T1, GABA-A receptor; anion channel (Homo sapiens); assay: Percentage of GABA-induced chloride currents with 10 e-5 M 4-biphenylacetic acid; assay type: functional; conditions: Bull Frog
Staphylococcus aureus [11] = assay: Effective dose against Staphylococcus aureus smith strain in mouse; assay type: functional
Staphylococcus aureus [12] = assay: Minimum inhibitory concentration against Staphylococcus aureus Smith; assay type: functional
Escherichia coli [13] = assay: Minimum inhibitory concentration against Escherichia coli KC14 strain; assay type: functional
Escherichia coli [14] = assay: Effective dose against Escherichia coli KC14 strain in mouse; assay type: functional
[15] = The compound was evaluated for the solubility in water at 25 degrees Centigrade; assay type: ADME
[16] = biological target: GABA-A receptor; anion channel; assay: Inhibition of [3H]muscimol binding to GABA A receptor 4-biphenylacetic acid at 10 e-4 M; assay type: protein-complex assay
[17] = biological target: T1, GABA-A receptor; anion channel (Homo sapiens); assay: Percentage of GABA-induced chloride currents, compound with 10E-4 M 4-biphenylacetic acid; assay type: functional; conditions: Bull Frog

| Compound | MIC (Staphylococcus aureus [1]) [µg/mL] | MIC (Escherichia coli [2]) [µg/mL] | MIC (Enterococcus faecalis) [µg/mL] | MIC (Streptococcus pneumoniae) [µg/mL] | MIC (Pseudomonas aeruginosa) [µg/mL] | Currents [3] [%] | Convulsion (Mus musculus [5]) [%] | Currents [6] [%] | IC50 [7] [µM] | MIC (Staphylococcus aureus [8]) [µg/mL] | Convulsion (Mus musculus [9]) [%] | Currents [10] [%] | ED50 (Staphylococcus aureus [11]) [mg mouse-1] | MIC (Staphylococcus aureus [12]) [µg/mL] | MIC (Escherichia coli [13]) [µg/mL] | ED50 (Escherichia coli [14]) [mg mouse-1] | solubility [15] [µg/mL] | IC50 ([16]; read-out: IC50) [µM] | further results |
| --- | --- | --- | --- | --- | --- | --- | --- | --- | --- | --- | --- | --- | --- | --- | --- | --- | --- | --- | --- |
| CC(=O)NCC1CN(c2c(F)cc3c(=O)c(C(=O)O)cn(C4CC4)c3c2F)CCO1 (configuration not stated) | 0.2 (≈ 0.475 µM) | 1.56 (≈ 3.7 µM) | 0.78 (≈ 1.85 µM) | 0.78 (≈ 1.85 µM) | 12.5 (≈ 29.7 µM) |  |  |  |  |  |  |  |  |  |  |  |  |  |  |
| CCn1cc(C(=O)O)c(=O)c2cc(F)c(N3CCOCC3)cc21 | 0.2 (≈ 0.624 µM) | 0.78 (≈ 2.44 µM) | 3.13 (≈ 9.77 µM) | 12.5 (≈ 39 µM) | 3.13 (≈ 9.77 µM) | 92 | 0 | 100 | > 100 | 0.39 (≈ 1.22 µM) | 0 | 100 |  |  |  |  |  |  | IC50 [4]: > 100 µM |
| NCC1CN(c2cc3c(cc2F)c(=O)c(C(=O)O)cn3C2CC2)CCO1 (configuration not stated) | 0.2 (≈ 0.553 µM) | 0.2 (≈ 0.553 µM) | 0.2 (≈ 0.553 µM) | 0.39 (≈ 1.08 µM) | 1.56 (≈ 4.32 µM) | 81 | 0 | 93 | > 100 |  | 0 | 90 | 0.835 | 0.05 (≈ 0.138 µM) | 0.1 (≈ 0.277 µM) | 0.139 | 390 (≈ 1080 µM) | > 100 |  |
| CN(C)CC1CN(c2c(F)cc3c(=O)c(C(=O)O)cn(C4CC4)c3c2F)CCO1 (configuration not stated) | 0.025 (≈ 0.0614 µM) | 0.2 (≈ 0.491 µM) | 0.39 (≈ 0.957 µM) | 0.05 (≈ 0.123 µM) | 3.13 (≈ 7.68 µM) | 83 | 0 | 91 | > 100 |  | 0 | 89 | 0.035 | 0.012 (≈ 0.0295 µM) | 0.05 (≈ 0.123 µM) | 0.009 | > 1000 | > 100 |  |
| O=C(O)c1cn(C2CC2)c2c(F)c(N3CCNCC3)c(F)cc2c1=O | 0.1 (≈ 0.286 µM) | 0.006 (≈ 0.0172 µM) | 0.2 (≈ 0.573 µM) | 0.39 (≈ 1.12 µM) | 0.1 (≈ 0.286 µM) | 0 | 0 | 81 | 64 | 0.78 (≈ 2.23 µM) | 88 | 11 |  |  |  |  |  | 0.12 |  |
| CNCC1CN(c2c(F)cc3c(=O)c(C(=O)O)cn(C4CC4)c3c2F)CCO1 (configuration not stated) | 0.025 (≈ 0.0636 µM) | 0.1 (≈ 0.254 µM) | 0.1 (≈ 0.254 µM) | 0.1 (≈ 0.254 µM) | 3.13 (≈ 7.96 µM) | 78 | 0 | 94 | > 100 |  | 0 | 90 | 0.044 | 0.012 (≈ 0.0305 µM) | 0.05 (≈ 0.127 µM) | 0.024 | 630 (≈ 1600 µM) | > 100 |  |
| CCN(CC)CC1CN(c2c(F)cc3c(=O)c(C(=O)O)cn(C4CC4)c3c2F)CCO1 (configuration not stated) | 0.1 (≈ 0.23 µM) | 0.39 (≈ 0.896 µM) | 0.39 (≈ 0.896 µM) | 0.1 (≈ 0.23 µM) | 6.25 (≈ 14.4 µM) |  |  |  |  |  |  |  |  |  |  |  |  |  |  |
| NCC1CN(c2c(F)cc3c(=O)c(C(=O)O)cn(C4CC4)c3c2Cl)CCO1 (configuration not stated) | 0.012 (≈ 0.0303 µM) | 0.1 (≈ 0.253 µM) | 0.05 (≈ 0.126 µM) | 0.05 (≈ 0.126 µM) | 1.56 (≈ 3.94 µM) |  |  |  |  |  |  |  |  |  |  |  |  |  |  |
| O=C(O)c1cn(C2CC2)c2c(F)c(N3CCOCC3)c(F)cc2c1=O | 0.025 (≈ 0.0714 µM) | 0.1 (≈ 0.285 µM) | 0.78 (≈ 2.23 µM) | 0.39 (≈ 1.11 µM) | 0.78 (≈ 2.23 µM) |  | 0 | 91 | > 100 | 0.05 (≈ 0.143 µM) | 0 | 91 | 1.304 | 0.05 (≈ 0.143 µM) | 0.1 (≈ 0.285 µM) | 0.056 | 9 (≈ 25.7 µM) | > 100 | Currents [17]: 71% |
| O=C(O)c1cn(C2CC2)c2cc(N3CCNCC3)c(F)cc2c1=O [CIPROFLOXACIN] | 0.1 (≈ 0.302 µM) |  | 0.39 (≈ 1.18 µM) | 0.39 (≈ 1.18 µM) | 0.1 (≈ 0.302 µM) |  | 0 | 64 | 100 | 1.56 (≈ 4.71 µM) | 63 | 0 | 0.354 | 0.1 (≈ 0.302 µM) | < 0.006 | 0.007 |  |  | IC50 [16]: 0.41 µM |
| NCC1CN(c2c(F)cc3c(=O)c(C(=O)O)cn(C4CC4)c3c2F)CCO1 (configuration not stated) | 0.025 (≈ 0.0659 µM) | 0.1 (≈ 0.264 µM) | 0.05 (≈ 0.132 µM) | 0.05 (≈ 0.132 µM) | 0.78 (≈ 2.06 µM) | 72 | 0 | 90 | > 100 |  | 0 | 90 | 0.067 | 0.012 (≈ 0.0316 µM) | 0.05 (≈ 0.132 µM) | 0.017 | 580 (≈ 1530 µM) | > 100 |  |
